From ChEMBL document CHEMBL4800727 (2021) come the findings set out here.

What all share (conditions): Compound concentration 10.0 uM
Test [1] addresses Beta-2 adrenergic receptor (Homo sapiens) (UniProt P07550).
For test [2], the target named is T1, Alpha-2B adrenergic receptor (Homo sapiens) (UniProt P18089).
T1 sequence (whole entry): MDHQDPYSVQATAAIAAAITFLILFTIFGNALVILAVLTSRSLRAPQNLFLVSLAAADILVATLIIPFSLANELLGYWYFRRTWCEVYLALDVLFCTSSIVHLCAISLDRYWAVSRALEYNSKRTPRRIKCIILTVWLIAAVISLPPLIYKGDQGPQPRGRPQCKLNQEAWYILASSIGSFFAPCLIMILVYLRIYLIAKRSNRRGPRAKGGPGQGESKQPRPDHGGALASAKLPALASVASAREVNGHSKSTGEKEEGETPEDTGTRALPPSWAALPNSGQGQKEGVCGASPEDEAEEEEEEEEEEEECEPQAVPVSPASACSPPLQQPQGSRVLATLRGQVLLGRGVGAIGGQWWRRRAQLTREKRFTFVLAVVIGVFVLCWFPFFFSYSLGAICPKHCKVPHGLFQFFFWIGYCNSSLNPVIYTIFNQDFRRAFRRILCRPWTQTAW

In test [3] the target is D(1A) dopamine receptor (Homo sapiens) (UniProt P21728).
D(1A) dopamine receptor (Homo sapiens), sequence (P21728 whole entry): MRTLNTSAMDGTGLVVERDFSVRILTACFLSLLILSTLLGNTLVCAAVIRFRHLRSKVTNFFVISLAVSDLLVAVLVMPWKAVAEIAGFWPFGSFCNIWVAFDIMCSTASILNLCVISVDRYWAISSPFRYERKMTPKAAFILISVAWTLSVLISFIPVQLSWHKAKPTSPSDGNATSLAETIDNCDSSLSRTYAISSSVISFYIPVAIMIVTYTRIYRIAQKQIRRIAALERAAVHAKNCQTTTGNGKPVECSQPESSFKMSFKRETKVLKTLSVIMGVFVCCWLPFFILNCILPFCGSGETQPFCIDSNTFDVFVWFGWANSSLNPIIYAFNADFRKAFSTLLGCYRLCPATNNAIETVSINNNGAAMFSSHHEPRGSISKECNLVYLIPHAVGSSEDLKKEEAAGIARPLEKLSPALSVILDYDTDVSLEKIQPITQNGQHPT
The target of test [4] is T2, 5-hydroxytryptamine receptor 3A (Homo sapiens) (UniProt P46098).
T2 sequence (whole entry): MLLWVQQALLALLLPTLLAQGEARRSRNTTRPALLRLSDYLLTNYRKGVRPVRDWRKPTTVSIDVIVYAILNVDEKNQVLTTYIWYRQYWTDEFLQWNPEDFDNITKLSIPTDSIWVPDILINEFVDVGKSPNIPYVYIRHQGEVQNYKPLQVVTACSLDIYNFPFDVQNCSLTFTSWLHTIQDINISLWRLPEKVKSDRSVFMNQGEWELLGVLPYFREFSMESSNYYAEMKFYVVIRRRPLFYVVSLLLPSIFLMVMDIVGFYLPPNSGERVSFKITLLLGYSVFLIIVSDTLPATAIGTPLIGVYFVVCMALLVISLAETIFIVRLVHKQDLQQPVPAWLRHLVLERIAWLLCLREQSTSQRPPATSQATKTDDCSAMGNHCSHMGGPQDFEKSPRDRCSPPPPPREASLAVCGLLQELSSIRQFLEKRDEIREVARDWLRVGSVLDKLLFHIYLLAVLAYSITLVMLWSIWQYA

In test [5] the target is 5-hydroxytryptamine receptor 1B (Homo sapiens) (UniProt P28222).
5-hydroxytryptamine receptor 1B (Homo sapiens), sequence (P28222 whole entry): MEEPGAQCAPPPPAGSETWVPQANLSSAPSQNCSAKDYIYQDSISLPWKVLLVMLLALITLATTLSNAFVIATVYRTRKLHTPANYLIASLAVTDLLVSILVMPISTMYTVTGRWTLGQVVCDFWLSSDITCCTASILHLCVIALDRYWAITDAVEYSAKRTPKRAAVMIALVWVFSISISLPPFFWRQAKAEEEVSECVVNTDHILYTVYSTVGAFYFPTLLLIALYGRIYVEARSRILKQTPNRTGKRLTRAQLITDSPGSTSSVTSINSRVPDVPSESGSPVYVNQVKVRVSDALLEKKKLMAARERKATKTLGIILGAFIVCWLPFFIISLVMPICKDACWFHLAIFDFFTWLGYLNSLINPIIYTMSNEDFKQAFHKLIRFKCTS
Test [6] deals with Beta-1 adrenergic receptor (Homo sapiens) (UniProt P08588).
Beta-1 adrenergic receptor (Homo sapiens), sequence (P08588 whole entry, looked up): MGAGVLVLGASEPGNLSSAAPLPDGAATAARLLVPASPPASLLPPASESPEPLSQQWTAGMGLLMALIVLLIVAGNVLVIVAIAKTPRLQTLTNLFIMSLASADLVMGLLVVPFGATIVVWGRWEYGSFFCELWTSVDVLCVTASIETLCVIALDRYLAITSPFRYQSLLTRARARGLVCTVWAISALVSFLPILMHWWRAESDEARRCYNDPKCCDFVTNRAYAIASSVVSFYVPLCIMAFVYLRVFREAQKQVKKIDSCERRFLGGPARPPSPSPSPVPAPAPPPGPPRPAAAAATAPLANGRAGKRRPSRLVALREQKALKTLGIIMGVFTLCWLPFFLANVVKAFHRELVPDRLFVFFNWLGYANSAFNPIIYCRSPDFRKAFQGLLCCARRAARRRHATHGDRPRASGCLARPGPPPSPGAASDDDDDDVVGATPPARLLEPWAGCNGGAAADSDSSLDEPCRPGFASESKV
In test [7] the target is Kappa-type opioid receptor (Homo sapiens) (UniProt P41145).
Kappa-type opioid receptor (Homo sapiens), sequence (P41145 whole entry): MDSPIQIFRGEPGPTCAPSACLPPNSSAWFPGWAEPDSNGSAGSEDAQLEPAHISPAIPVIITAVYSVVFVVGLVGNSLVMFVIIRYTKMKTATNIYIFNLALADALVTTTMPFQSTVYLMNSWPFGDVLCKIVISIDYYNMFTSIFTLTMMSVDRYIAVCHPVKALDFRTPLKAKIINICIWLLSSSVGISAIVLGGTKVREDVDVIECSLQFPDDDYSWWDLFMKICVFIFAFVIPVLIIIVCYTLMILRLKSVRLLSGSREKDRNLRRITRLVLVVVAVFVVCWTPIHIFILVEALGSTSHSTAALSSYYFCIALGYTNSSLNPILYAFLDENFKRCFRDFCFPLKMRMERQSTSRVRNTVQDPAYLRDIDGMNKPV
The target in test [8] is T3, 5-hydroxytryptamine receptor 1A (Homo sapiens) (UniProt P08908).
T3 sequence (whole entry): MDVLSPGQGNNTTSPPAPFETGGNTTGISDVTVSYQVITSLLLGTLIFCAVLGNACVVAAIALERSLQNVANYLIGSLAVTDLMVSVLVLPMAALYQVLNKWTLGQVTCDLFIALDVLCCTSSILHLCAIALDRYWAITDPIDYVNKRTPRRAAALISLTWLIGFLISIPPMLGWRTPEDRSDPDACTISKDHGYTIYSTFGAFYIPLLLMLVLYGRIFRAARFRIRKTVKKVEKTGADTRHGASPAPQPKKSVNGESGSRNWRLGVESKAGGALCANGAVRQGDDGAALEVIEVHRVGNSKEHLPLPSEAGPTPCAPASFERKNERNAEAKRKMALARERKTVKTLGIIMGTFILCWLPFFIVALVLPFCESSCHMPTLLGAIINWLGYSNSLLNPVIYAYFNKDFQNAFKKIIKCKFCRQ

For test [9], the target named is 5-hydroxytryptamine receptor 6 (Homo sapiens) (UniProt P50406).
5-hydroxytryptamine receptor 6 (Homo sapiens), sequence (P50406 whole entry): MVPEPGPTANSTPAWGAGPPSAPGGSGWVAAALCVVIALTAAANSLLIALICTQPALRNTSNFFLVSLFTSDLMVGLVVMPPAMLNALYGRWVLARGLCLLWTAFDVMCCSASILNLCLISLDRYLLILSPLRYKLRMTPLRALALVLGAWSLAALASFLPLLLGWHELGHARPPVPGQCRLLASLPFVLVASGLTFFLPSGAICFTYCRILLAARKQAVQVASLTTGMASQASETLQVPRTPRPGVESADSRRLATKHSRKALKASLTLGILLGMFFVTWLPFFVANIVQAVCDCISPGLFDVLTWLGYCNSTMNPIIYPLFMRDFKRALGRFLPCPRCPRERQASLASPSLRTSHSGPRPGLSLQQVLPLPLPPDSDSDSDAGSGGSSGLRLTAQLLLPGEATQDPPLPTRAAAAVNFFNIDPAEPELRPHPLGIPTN
Test [10] addresses T4, Muscarinic acetylcholine receptor M4 (Homo sapiens) (UniProt P08173).
T4 sequence (whole entry): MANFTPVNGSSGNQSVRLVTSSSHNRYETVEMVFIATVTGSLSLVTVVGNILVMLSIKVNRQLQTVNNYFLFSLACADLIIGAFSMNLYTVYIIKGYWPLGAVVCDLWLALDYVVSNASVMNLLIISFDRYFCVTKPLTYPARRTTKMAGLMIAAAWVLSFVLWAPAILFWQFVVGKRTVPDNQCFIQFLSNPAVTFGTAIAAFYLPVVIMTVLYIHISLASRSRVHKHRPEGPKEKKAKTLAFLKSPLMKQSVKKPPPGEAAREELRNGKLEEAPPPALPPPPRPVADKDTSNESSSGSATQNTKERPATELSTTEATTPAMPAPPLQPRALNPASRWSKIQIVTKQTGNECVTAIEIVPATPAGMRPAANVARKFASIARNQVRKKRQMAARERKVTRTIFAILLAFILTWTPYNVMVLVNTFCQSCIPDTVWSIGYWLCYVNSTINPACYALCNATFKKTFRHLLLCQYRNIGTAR

In test [11] the target is T5, Alpha-1B adrenergic receptor (Homo sapiens) (UniProt P35368).
T5 sequence (whole entry): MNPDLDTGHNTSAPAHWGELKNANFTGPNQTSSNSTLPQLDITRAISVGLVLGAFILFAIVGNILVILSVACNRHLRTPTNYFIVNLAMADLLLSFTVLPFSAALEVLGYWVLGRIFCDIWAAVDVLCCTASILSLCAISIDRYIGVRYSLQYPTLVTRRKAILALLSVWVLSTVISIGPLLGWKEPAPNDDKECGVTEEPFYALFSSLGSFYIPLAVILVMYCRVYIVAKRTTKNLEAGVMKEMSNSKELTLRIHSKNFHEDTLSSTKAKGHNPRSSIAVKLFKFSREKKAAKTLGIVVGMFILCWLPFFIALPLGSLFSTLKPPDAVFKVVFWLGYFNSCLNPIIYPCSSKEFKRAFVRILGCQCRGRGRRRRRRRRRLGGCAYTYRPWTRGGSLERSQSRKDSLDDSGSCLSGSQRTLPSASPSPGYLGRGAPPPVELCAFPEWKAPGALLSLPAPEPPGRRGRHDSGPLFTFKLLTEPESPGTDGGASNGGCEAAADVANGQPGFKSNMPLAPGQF

Test [12] has as its target 5-hydroxytryptamine receptor 2B (Homo sapiens, UniProt P41595).
Test [13] addresses Mu-type opioid receptor (Homo sapiens) (UniProt P35372).
Test [14] in a line: cML1 Cerep panel.
Test [15] deals with Neuronal acetylcholine receptor; alpha4/beta2 (Homo sapiens) (UniProt P17787+P43681). The test is described as follows: hNneuronala4b2 Cerep panel.

Beta-2 adrenergic receptor (Homo sapiens), sequence (P07550 whole entry, looked up): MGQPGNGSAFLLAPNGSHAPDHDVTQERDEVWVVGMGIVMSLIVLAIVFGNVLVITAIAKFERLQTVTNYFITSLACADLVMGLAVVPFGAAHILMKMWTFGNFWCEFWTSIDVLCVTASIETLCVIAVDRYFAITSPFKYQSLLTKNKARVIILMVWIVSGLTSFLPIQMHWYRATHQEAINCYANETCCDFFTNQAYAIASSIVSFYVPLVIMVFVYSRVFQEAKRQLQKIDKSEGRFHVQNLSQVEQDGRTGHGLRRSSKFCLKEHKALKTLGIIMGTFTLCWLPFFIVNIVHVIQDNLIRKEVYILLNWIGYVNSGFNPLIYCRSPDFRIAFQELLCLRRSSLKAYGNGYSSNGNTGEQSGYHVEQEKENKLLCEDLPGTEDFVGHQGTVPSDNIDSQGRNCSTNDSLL
Mu-type opioid receptor (Homo sapiens), sequence (P35372 whole entry): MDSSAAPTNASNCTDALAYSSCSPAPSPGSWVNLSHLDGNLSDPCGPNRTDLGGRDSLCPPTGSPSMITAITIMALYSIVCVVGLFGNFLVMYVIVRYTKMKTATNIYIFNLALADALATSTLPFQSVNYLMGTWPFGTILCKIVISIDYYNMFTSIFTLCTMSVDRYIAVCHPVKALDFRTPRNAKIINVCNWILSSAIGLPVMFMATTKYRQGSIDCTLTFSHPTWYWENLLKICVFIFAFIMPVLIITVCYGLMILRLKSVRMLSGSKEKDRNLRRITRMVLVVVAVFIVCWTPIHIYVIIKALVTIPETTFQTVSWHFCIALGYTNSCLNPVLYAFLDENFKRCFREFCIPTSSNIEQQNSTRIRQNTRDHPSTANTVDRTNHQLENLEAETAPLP
5-hydroxytryptamine receptor 2B, sequence (P41595 whole entry): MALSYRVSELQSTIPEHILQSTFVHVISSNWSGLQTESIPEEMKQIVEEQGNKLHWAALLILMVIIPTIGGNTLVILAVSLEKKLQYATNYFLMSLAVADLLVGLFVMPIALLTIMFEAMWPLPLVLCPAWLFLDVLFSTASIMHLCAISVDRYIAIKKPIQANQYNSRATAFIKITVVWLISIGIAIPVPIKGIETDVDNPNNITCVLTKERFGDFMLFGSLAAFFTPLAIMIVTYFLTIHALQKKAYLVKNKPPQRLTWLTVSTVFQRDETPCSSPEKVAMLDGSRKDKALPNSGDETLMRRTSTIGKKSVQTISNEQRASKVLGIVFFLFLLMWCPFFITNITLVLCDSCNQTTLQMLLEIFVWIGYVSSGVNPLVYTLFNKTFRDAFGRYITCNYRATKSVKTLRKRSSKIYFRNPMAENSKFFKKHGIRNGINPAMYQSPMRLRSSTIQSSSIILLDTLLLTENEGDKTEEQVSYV

As a reminder, the inhibition is the change of the read-out against control, counted positive when it falls. In the case of `c1ccc(C2CCN(c3cnc4c(N5CCOCC5)nccn34)CC2)cc1`, the inhibition in test [1] was 8.86%; in test [2], 31.4%; in test [3], 10.6%; in [4], 9.38%; in test [5], 8.68%; in test [6] it was 23.5%. In addition, the inhibition in [7] is 6.44%; in [8] it was 25.7%; in test [9], -7.87%; in test [10], -5.45%; in [11], 0.45%; in [12] it was 17.7%. For the same compound, the inhibition in [13] was 19.6%.
As to `COCCc1ccc(-c2c(C)nc3c(N4CCOCC4)ccnn23)cn1` [JNJ-42396302], the inhibition in test [1] is -1.12%; in [2] it was 78.2%; in [3] it was 2.41%; in [4], 4.69%; in test [5], -0.76%; in [6], 3.43%. Also, the inhibition in [7] was 14.5%; in [8] it was 22.9%; in [9] it was 18.5%; in test [10], 5.21%; in [11], -8.94%; in test [12], 52.2%. Besides, in test [13], the inhibition was -1.51%. Further, the figures for the effect in test [14] and in test [15] were -4.5% and -3%, respectively.
